{"source": "patent US20230277669A1", "about": "“USES OF UROLITHINS” (Amazentis SA, priority 2022, published 2023)", "system": "APTK organoids", "test": "APTK organoids incubated with UA, flow cytometry", "type": "cell-based, murine", "description": "Oral UA confers anti-tumor effects in murine colorectal cancer in a T-cell dependent manner. (FIG. 1A) Schematic representation of AOM model and different UA containing diets. (FIG. 1B) Representative images of swiss-roll sections from AOM-induced colon tumors. Scale bars are 2 mm (upper row) and 300 µm (lower row), respectively. (FIG. 1C) Tumor incidence of AOM-induced tumors receiving different UA-containing diets; n=4/5/5. Data are mean ±SD, depicting one of two independent experiments. *p < 0.05 by two-sided t-test. (FIG. 1D) Average lesion size of AOM-induced tumors receiving different UA-containing diets; n=4/5/5. Data are mean ±SD, depicting one of two independent experiments. *p < 0.05 by two-sided t-test. (FIG. 1E) Relative number of CD45^+CD3^+ T cells in colons of AOM-treated mice at week 24 (n>7, pooled from two independent experiments). Data are mean ± SD, **p < 0.01 by two-sided t-test. (FIG. 1F) Organoid treatment scheme. APTK-organoids were incubated in the presence of UA or DMSO for the indicated time points, prior to flow cytometric analysis. (FIG. 1G) Quantification of lysosome formation as assessed by lysotracker MFI via flow cytometry after 24 h incubation at the presence of various UA concentrations (n=5/4/4). Depicts one out of two indepdent experiments. Data are mean ± SD, *p < 0.05; **p < 0.01 as established via two-sided t-test. (FIG. 1H) Mitotracker signal of APTK organoids incubated for 24 h at the presence of UA in vitro (n=4/4/4) and antigen presentation via MHC-I molecules (I) after 48 h of treatment (n=4/4/4). Results from one out of two independent experiments are shown. Data are mean ± SD, statistical analysis was performed via two-sided t-test, *p < 0.05; **p < 0.01, ****p < 0.0001. (FIG. 1I) Upregulation of MHC-I by UA. (FIG. 1J) Experimental setup of oral UA administration in mice with established APTK-s.c. tumors. […] (FIG. 1L) End point tumor weight, (FIG. 1M) CD8+ T cell infiltration in APTK-s.c. tumors assessed by flow cytometry, normalising total number of CD8^+ T cells to tumor weight (n=7 per group). […]", "key": {"[1]": {"settings": "increasing concentrations of UA, 24 h"}}}
{"smiles": "O=c1oc2cc(O)ccc2c2ccc(O)cc12", "note": "[Urolithin A]", "values": [{"measurement": "MHC-I (antigen presentation)", "setting": "48 h of treatment", "value": "marked upregulation of MHC-I"}, {"measurement": "MitoTracker staining", "setting": "[1]", "value": "loss of MitoTracker staining"}, {"measurement": "formation of lysosomes (lysotracker MFI)", "setting": "[1]", "value": "dose-dependent formation of lysosomes"}]}
